# Assay results taken from the supplement of paper PMC10307832.
# Assays:
# Assay in all cases: relative viability (nuclei count vs DMSO), 5 days (fraction); higher = more cells survive
# Pictilisib + Luminespib = compound: CS(=O)(=O)N1CCN(Cc2cc3nc(-c4cccc5[nH]ncc45)nc(N4CCOCC4)c3s2)CC1 [Pictilisib] + CCNC(=O)c1noc(-c2cc(C(C)C)c(O)cc2O)c1-c1ccc(CN2CCOCC2)cc1 [Luminespib] (partner 0.01 µM)
# How it was run: (§1)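 Relative viability equals treated-well nuclei counts divided by vehicle-well nuclei counts. Counts came from 4× images of lung cancer cell lines grown in 1536-well plates for 5 days after pin-tool dosing on the day after seeding. Dosing used one drug alone or a fixed anchor-drug dose plus five library-drug doses (not always all listed) in √10 steps, and values are medians of duplicate plates.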
# Pictilisib + Foretinib = compound: CS(=O)(=O)N1CCN(Cc2cc3nc(-c4cccc5[nH]ncc45)nc(N4CCOCC4)c3s2)CC1 [Pictilisib] + COc1cc2c(Oc3ccc(NC(=O)C4(C(=O)Nc5ccc(F)cc5)CC4)cc3F)ccnc2cc1OCCCN1CCOCC1 [Foretinib] (partner 0.25 µM)
# How it was run: as §1
# Pictilisib + Alpelisib = compound: CS(=O)(=O)N1CCN(Cc2cc3nc(-c4cccc5[nH]ncc45)nc(N4CCOCC4)c3s2)CC1 [Pictilisib] + Cc1nc(NC(=O)N2CCC[C@H]2C(N)=O)sc1-c1ccnc(C(C)(C)C(F)(F)F)c1 [Alpelisib] (partner 2 µM)
# How it was run: as §1
# MK-2206 + Phenformin = compound: NC1(c2ccc(-c3nc4ccn5c(=O)[nH]nc5c4cc3-c3ccccc3)cc2)CCC1 [MK-2206] + N=C(N)NC(=N)NCCc1ccccc1 [Phenformin] (partner 250 µM)
# How it was run: as §1
# MK-2206 + Vorinostat = compound: NC1(c2ccc(-c3nc4ccn5c(=O)[nH]nc5c4cc3-c3ccccc3)cc2)CCC1 [MK-2206] + O=C(CCCCCCC(=O)Nc1ccccc1)NO [Vorinostat] (partner 1 µM)
# How it was run: as §1
cell line,measurement,setting,value
UMC-11,relative viability,Pictilisib + Luminespib; first compound 0.02 µM,1.02
same,relative viability,Pictilisib + Luminespib; first compound 0.06325 µM,1.15
same,relative viability,Pictilisib + Luminespib; first compound 0.6325 µM,1.09
same,relative viability,Pictilisib + Luminespib; first compound 2 µM,0.988
same,relative viability,Pictilisib + Foretinib; first compound 0.02 µM,0.983
same,relative viability,Pictilisib + Foretinib; first compound 0.06325 µM,1.25
same,relative viability,Pictilisib + Foretinib; first compound 0.6325 µM,1.13
same,relative viability,Pictilisib + Foretinib; first compound 2 µM,0.979
same,relative viability,Pictilisib + Alpelisib; first compound 0.02 µM,0.942
same,relative viability,Pictilisib + Alpelisib; first compound 0.06325 µM,1.05
same,relative viability,Pictilisib + Alpelisib; first compound 0.6325 µM,1.14
same,relative viability,Pictilisib + Alpelisib; first compound 2 µM,1.17
same,relative viability,MK-2206 + Phenformin; first compound 0.01 µM,0.351
same,relative viability,MK-2206 + Phenformin; first compound 0.03162 µM,0.312
same,relative viability,MK-2206 + Phenformin; first compound 0.3162 µM,0.33
same,relative viability,MK-2206 + Phenformin; first compound 1 µM,0.316
same,relative viability,MK-2206 + Vorinostat; first compound 0.01 µM,0.388
same,relative viability,MK-2206 + Vorinostat; first compound 0.03162 µM,0.365
same,relative viability,MK-2206 + Vorinostat; first compound 0.3162 µM,0.416
same,relative viability,MK-2206 + Vorinostat; first compound 1 µM,0.379
